Values joined by “and” are separate entries in the source; they are usually repeats but may differ in a detail not shown here. Identical values can stand only once.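 1) Cells in 96-well plates. 2) Compound, 48 h, 5 concentrations. 3) Linear interpolation between surrounding doses. 4) Unreached endpoint = highest concentration. The concentration for 50% growth inhibition is given as GI50. Definition used: TGI = concentration required for complete inhibition of growth.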
Assays:
Experiment in all cases: NCI anticancer screen, dose series, 48 h
RPMI-8226 leukemia = test system: RPMI-8226 leukemia
HCT-15 colon = test system: HCT-15 colon
RXF 393 renal = test system: RXF 393 renal
UO-31 renal = test system: UO-31 renal
ACHN renal = test system: ACHN renal
SK-OV-3 ovarian = test system: SK-OV-3 ovarian
TK-10 renal = test system: TK-10 renal
786-0 renal = test system: 786-0 renal
COLO 205 colon = test system: COLO 205 colon
MDA-MB-231 breast = test system: MDA-MB-231 breast

Row | SMILES | GI50 (RPMI-8226 leukemia) [µM] | TGI (RPMI-8226 leukemia) [µM] | GI50 (HCT-15 colon) [µM] | TGI (HCT-15 colon) [µM] | GI50 (RXF 393 renal) | TGI (RXF 393 renal) | TGI (UO-31 renal) [µM] | TGI (ACHN renal) [µM] | GI50 (SK-OV-3 ovarian) | TGI (SK-OV-3 ovarian) | GI50 (TK-10 renal) [µM] | TGI (TK-10 renal) | TGI (786-0 renal) [µM] | GI50 (COLO 205 colon) [µM] | TGI (COLO 205 colon) [µM] | TGI (MDA-MB-231 breast) [µM] | GI50 (UO-31 renal) [µM] | GI50 (ACHN renal) [µM] | GI50 (786-0 renal) [µM] | GI50 (MDA-MB-231 breast) [µM]
1 | COc1ccc(C2C(C)C(=O)C(C)C(c3ccc(OC)cc3)N2N=O)cc1 (stereo unspecified) | > 750 | > 1000 | > 750 | > 1000 | 20.7 µM and 67.6 µM | 64.8 µM and 216 µM and 122 µM | > 1000 | > 663 | > 47.5 µM and 220 µM | > 82.5 µM and 626 µM and 980 µM | 147 | 488 µM and 245 µM | 467 | > 750 | > 750 | 132 |  |  |  | 
2 | Cn1c(NCC(O)CN2CCCC2)cc(=O)n(C)c1=O (stereo unspecified) | > 100 | > 100 | > 100 | > 100 | > 100 µM | > 100 µM | > 100 | > 100 | > 100 µM | > 100 µM | > 100 | > 100 µM | > 100 | > 100 | > 100 | > 100 | > 100 | > 100 | > 100 | > 100
3 | COc1ccc(/C=C/C(=O)c2ccc(OC)c(OC)c2)cc1O | 3.19 | 15.1 | 3.41 | 32.9 | 2.63 µM | 7.62 µM | 19.2 | > 100 | 6.51 µM | 45 µM | 11.4 | 30.4 µM | 65.8 | 12.5 | 25 | 31.8 | 5.83 | 6.15 | 14.2 | 4.76
4 | CCCCCCCCCCCCOC1C(CNC(=O)C2OC3OC(C)(C)OC3C2NC(=O)Nc2ccc(CC(=O)NC(Cc3ccccc3)C(=O)O)cc2)OC2OC(C)(C)OC21 (stereo unspecified) | 15.9 | > 25 | > 25 | > 25 | 13.3 µM | > 25 µM | > 25 | > 25 | > 25 µM | > 25 µM | > 25 | > 25 µM | > 25 | > 25 | > 25 | > 25 | > 25 | > 25 | > 25 | > 25
5 | O=C(Nc1ccc(/C=C/c2ccc(NC(=O)c3cc(S(=O)(=O)O)c4cccnc4c3O)cc2S(=O)(=O)O)c(S(=O)(=O)O)c1)c1cc(S(=O)(=O)O)c2cccnc2c1O | 27 | > 65.2 | > 41.6 | > 71.5 | 20.9 µM | > 53.6 µM | > 69 | > 15.8 | > 38.9 µM | > 100 µM | 48.4 | > 71.4 µM | > 54.5 | 19.9 | > 57.5 | > 68.4 | 24.5 | 3.37 | 4.86 | 16.3
6 | CC(=O)c1cc(C(=O)c2ccc3c(c2)Sc2ccccc2N3)c2cc(C)ccn12 | 0.233 | > 100 | 0.0704 | > 100 | 0.0411 µM | > 100 µM | > 100 | > 100 | 0.189 µM | > 100 µM | > 100 | > 100 µM | > 100 | 0.0598 | 0.346 | > 100 | 0.0515 | 0.0816 | 0.0965 | 0.348
7 | NC(N)=N/N=C/c1ccc(-c2ccc(-c3cc(Cl)cc(Cl)c3)s2)cc1 | 1.78 | 4.49 | 1.25 | 2.76 | 1.67 µM | 3.37 µM | 2.97 | 3.29 | 2 µM | 4.08 µM | 1.71 | 3.54 µM | 3.66 | 1.49 | 3.88 | 3.36 | 1.5 | 1.75 | 1.74 | 1.77
8 | O=c1ssc(Cl)c1Cl |  | 9.11 |  | > 10 |  | > 10 µM | > 6.86 | > 10 |  | > 10 µM |  | > 10 µM | > 7.05 |  | 4.32 | > 10 |  |  |  | 
